# Experimental data taken from article PMC7827406, “Structure–Activity Relationship (SAR) Study of Spautin-1 to Entail the Discovery of Novel NEK4 Inhibitors” (International Journal of Molecular Sciences, 2021).
# Where two headings read alike, the source gives them in different places.
# Assays:
# [1] = molecular target: T1, EphA8(h) (Homo sapiens, UniProt P29322); test: biochemical; design: Eurofins KinaseProfiler full panel at Km ATP, residual kinase activity (%) relative to DMSO
# T1 sequence (P29322 1-1005): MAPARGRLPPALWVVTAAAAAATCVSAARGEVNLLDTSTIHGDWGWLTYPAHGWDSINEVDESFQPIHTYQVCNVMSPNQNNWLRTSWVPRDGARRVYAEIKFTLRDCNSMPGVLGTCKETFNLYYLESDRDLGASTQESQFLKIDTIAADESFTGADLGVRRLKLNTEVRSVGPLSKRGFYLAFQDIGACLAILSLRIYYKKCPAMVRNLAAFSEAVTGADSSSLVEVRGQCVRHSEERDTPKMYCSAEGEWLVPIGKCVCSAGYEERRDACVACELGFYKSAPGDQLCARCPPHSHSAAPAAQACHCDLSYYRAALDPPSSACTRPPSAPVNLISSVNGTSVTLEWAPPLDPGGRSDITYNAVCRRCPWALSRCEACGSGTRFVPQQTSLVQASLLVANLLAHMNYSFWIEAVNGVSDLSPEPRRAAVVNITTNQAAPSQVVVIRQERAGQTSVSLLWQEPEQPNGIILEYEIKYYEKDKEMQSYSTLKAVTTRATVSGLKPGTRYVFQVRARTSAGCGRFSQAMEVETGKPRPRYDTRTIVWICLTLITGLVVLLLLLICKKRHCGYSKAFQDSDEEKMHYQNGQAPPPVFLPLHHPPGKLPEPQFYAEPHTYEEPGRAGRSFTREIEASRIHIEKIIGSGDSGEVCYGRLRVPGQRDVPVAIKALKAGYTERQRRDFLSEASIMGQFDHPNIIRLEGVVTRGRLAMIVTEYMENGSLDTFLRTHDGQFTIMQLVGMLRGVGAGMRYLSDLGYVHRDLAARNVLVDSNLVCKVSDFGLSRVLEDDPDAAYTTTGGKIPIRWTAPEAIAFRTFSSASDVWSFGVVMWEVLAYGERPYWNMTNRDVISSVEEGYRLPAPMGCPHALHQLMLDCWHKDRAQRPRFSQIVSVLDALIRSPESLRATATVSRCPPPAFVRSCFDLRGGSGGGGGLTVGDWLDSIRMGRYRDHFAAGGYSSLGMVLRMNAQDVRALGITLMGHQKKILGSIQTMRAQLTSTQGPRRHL
# Procedure, shortened: (§1)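 Radiometric kinase activity assays were run with ATP at Km and compounds at 10 µM, and remaining activity (%) was reported. A separate competitive binding screen measured DNA-tagged kinase displaced from immobilized active-site ligands by qPCR, giving percent kinase still bound at 10 µM compound in DMSO.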
# [2] = molecular target: T2, PKCζ(h) (Homo sapiens, UniProt Q05513); test: biochemical; design: Eurofins KinaseProfiler full panel at Km ATP, residual kinase activity (%) relative to DMSO
# T2 construct: gene PRKCZ
# T2 sequence (Q05513 1-592): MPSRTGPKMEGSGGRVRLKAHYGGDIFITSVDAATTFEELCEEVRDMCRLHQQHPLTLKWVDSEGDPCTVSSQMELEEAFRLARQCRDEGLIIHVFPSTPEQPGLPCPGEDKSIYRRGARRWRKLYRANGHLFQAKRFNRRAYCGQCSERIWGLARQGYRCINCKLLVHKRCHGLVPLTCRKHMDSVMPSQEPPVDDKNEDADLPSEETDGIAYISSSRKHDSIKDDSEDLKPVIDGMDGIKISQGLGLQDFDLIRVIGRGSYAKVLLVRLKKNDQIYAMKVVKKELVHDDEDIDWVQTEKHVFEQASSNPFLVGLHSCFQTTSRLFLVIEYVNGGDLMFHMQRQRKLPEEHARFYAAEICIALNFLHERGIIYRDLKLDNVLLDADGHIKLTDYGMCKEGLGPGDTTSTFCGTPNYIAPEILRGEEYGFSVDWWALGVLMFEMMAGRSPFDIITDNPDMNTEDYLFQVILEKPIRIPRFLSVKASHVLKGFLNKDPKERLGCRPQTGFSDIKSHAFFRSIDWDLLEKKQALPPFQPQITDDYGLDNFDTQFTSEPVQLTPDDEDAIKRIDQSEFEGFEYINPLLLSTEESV
# Procedure, shortened: as §1
# [3] = read-out: Residual activity (%) Spautin-1 5aa
# [4] = read-out: Residual activity (%) 5as
# [5] = read-out: Residual activity (%) 5at
# [6] = read-out: Residual activity (%) 5ay
compound,measurement,setting,value
"Fc1ccc(CNc2ncnc3ccc(F)cc23)cc1 [5aa, 6-Fluoro-N-(4-fluorobenzyl)-4-Quinazolinamine]",remaining activity at 10 µM,[1]; [3],87%
same,remaining activity at 10 µM,[2]; [3],85%
"Fc1ccc(CCNc2ncnc3ccc(F)cc23)cc1 [5as, 6-Fluoro-N-[2-(4-Fluorophenyl)Ethyl]-4-Quinazolinamine]",remaining activity at 10 µM,[1]; [4],88%
same,remaining activity at 10 µM,[2]; [4],75%
"Fc1ccc2ncnc(NCCc3ccc(Cl)cc3)c2c1 [5at, N-[2-(4-Chlorophenyl)Ethyl]-6-Fluoro-4-Quinazolinamine]",remaining activity at 10 µM,[1]; [5],71%
same,remaining activity at 10 µM,[2]; [5],71%
"COc1ccc2ncnc(Nc3cccc(F)c3)c2c1 [5ay, N-(3-Fluorophenyl)-6-Methoxy-4-Quinazolinamine]",remaining activity at 10 µM,[1]; [6],84%
same,remaining activity at 10 µM,[2]; [6],91%
